Results as given in US7964645B2, “Di-aromatic substituted amides as inhibitors for GlyT-1” (Hoffmann-La Roche Inc., priority 2006, dated 2011).

Target: T1, mGlyT-1b (Mus musculus, UniProt P28571)
T1 construct: host or cells: Flp-in-CHO
T1 sequence (P28571 1-651 isoform P28571-2): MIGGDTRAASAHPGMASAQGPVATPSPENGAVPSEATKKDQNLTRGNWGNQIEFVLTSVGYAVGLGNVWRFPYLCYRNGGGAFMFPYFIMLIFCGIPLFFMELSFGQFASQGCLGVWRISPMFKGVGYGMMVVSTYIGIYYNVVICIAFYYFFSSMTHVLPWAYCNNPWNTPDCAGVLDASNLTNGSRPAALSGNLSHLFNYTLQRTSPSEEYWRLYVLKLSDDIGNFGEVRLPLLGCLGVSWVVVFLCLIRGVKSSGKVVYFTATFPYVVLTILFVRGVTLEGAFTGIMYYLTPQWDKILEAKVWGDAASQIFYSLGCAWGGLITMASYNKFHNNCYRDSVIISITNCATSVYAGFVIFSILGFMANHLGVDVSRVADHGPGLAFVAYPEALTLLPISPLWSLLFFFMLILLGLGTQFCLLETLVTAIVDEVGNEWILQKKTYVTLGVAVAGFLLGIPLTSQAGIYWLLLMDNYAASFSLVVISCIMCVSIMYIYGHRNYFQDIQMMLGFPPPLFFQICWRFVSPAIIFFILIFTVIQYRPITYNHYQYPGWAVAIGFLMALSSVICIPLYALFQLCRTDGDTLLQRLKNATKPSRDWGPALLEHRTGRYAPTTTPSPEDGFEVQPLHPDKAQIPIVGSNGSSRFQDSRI
Test: Glycine Uptake Inhibition Assay (mGlyT-1b)
Type: cell-based
Details: [3H]-glycine uptake in Flp-in-CHO cells transfected with mGlyT-1b cDNA; 20 min at 22° C.; read-out: GlyT-1 IC50
Method: DMEM complete medium: Nutrient mixture F-12 (Gibco Life-technologies), fetal bovine serum (FBS) 5%, (Gibco life technologies), Penicillin/Streptomycin 1% (Gibco life technologies), Hygromycin 0.6 mg/ml (Gibco life technologies), Glutamine 1 mM Gibco life technologies)
Uptake buffer (UB): 150 mM NaCl, 10 mM Hepes-Tris, pH 7.4, 1 mM CaCl2, 2.5 mM KCl, 2.5 mM MgSO4, 10 mM (+) D-glucose.
Flp-in™-CHO (Invitrogen Cat n^o R758-07) cells stably transfected with mGlyT1b cDNA.
Glycine Uptake Inhibition Assay (mGlyT-1b)
On day 1 mammalian cells, (Flp-in™-CHO), transfected with mGlyT-1b cDNA, were plated at the density of 40,000 cells/well in complete F-12 medium, without hygromycin in 96-well culture plates. On day 2, the medium was aspirated and the cells were washed twice with uptake buffer (UB). The cells were then incubated for 20 min at 22° C. with either (i) no potential competitor, (ii) 10 mM non-radioactive glycine, (iii) a concentration of a potential inhibitor. A range of concentrations of the potential inhibitor was used to generate data for calculating the concentration of inhibitor resulting in 50% of the effect (e.g. IC50, the concentration of the competitor inhibiting glycine uptake of 50%). A solution was then immediately added containing [^3H]-glycine 60 nM (11-16 Ci/mmol) and 25 μM non-radioactive glycine. The plates were incubated with gentle shaking and the reaction was stopped by aspiration of the mixture and washing (three times) with ice-cold UB. The cells were lysed with scintillation liquid, shaken 3 hours and the radioactivity in the cells was counted using a scintillation counter.

Structure (SMILES)	IC50
O=C(CNC(=O)c1ccccc1)NC(c1ccccc1)c1cccc(C(F)(F)F)c1 (racemic) [Example 1.30, rac-N-({[Phenyl-(3-trifluoromethyl-phenyl)-methyl]-carbamoyl}-methyl)-benzamide]	54 nM
O=C(CNC(=O)c1ccc([N+](=O)[O-])s1)NC(c1ccccc1)c1ccc(Cl)cc1 (racemic) [Example 1.32, rac-5-Nitro-thiophene-2-carboxylic acid ({[(4-chloro-phenyl)-phenyl-methyl]-carbamoyl}-methyl)-amide]	15 nM
N#Cc1ccc(C(=O)NCC(=O)NC(c2ccccc2)c2cccc(C(F)(F)F)c2)cc1 (racemic) [Example 1.44, rac-4-Cyano-N-({[phenyl-(3-trifluoromethyl-phenyl)-methyl]-carbamoyl}-methyl)-benzamide]	19 nM
O=C(CNC(=O)c1ccc(F)cc1)NC(c1ccccc1)c1ccc(F)cc1 (racemic) [Example 1.69, rac-4-Fluoro-N-({[(4-fluoro-phenyl)-phenyl-methyl]-carbamoyl}-methyl)-benzamide]	88 nM
O=C(CNC(=O)c1ccc(F)cc1)NC(c1ccccc1)c1cc(F)cc(F)c1 (racemic) [Example 1.72, rac-N-({[(3,5-Difluoro-phenyl)-phenyl-methyl]-carbamoyl}-methyl)-4-fluoro-benzamide]	25 nM
O=C(CNC(=O)c1ccc(F)cc1)NC(c1ccc(Cl)cc1)c1cccc(C(F)(F)F)c1 (racemic) [Example 1.76, rac-N-({[(4-Chloro-phenyl)-(3-trifluoromethyl-phenyl)-methyl]-carbamoyl}-methyl)-4-fluoro-benzamide]	74 nM
O=C(CNC(=O)c1ccc(F)cc1)NC(c1ccc(F)cc1)c1cccc(C(F)(F)F)c1 (racemic) [Example 1.77, rac-4-Fluoro-N-({[(4-fluoro-phenyl)-(3-trifluoromethyl-phenyl)-methyl]-carbamoyl}-methyl)-benzamide]	48 nM
Cc1ccc(C(NC(=O)CNC(=O)c2ccc(F)cc2)c2cccc(C(F)(F)F)c2)cc1 (racemic) [Example 1.78, rac-4-Fluoro-N-({[p-tolyl-(3-trifluoromethyl-phenyl)-methyl]-carbamoyl}-methyl)-benzamide]	58 nM
Cc1ccc(C(=O)NCC(=O)NC(c2cccc(F)c2)c2cccc(F)c2)s1 [Example 1.86, 5-Methyl-thiophene-2-carboxylic acid ({[bis-(3-fluoro-phenyl)-methyl]-carbamoyl}-methyl)-amide]	42 nM
O=C(CNC(=O)c1ccsc1)NC(c1cccc(F)c1)c1cccc(F)c1 [Example 1.98, Thiophene-3-carboxylic acid ({[bis-(3-fluoro-phenyl)-methyl]-carbamoyl}-methyl)-amide]	28 nM
